Results reported in patent publication US8754206B2, “Metal (III) complex of biuret-amide based macrocyclic ligand as green oxidation catalyst” (Council of Scientific & Industrial Research, priority 2011, dated 2014).

Tests used:
[1] = Stability towards demetallation at different pH and phosphate buffer ionic strengths (UV-VIS); type: physicochemical; settings: for demetalation in high concentration phosphate buffer: twenty four hour time scale, 350 nm
Protocol: In yet another embodiment, the stability of (IA) towards demetallation at different pH and ionic strengths is tested to evaluate the operational stability of the complex of instant invention for possible catalytic reactions in water. […] The stability of this complex is also monitored at different ionic strengths at pH 7. […] The phosphate buffer induced demetallation for similar Fe-TAML's have been studied in details. The proposed mechanism for phosphate buffer induced demetallation involves first the co-ordination of the O—PO(OH)2 into the Fe(III) center followed by the intramolecular attack of the H+ onto the amide N-donors. Complex (IA) has an extra —NMe group which is not bonded to the Fe(III) center. The lone pair on this N-atom resides predominantly in the p-orbital and can possibly be the first site for attack of the intramolecular H+ ion, thereby shielding complex (IA) from phosphate induced demetallation.
(§1) a. Kinetic Studies of Add Catalyzed Demetalation. • [Fe^III(biuret-amide)] catalyst are subject to H^+ catalyzed demetalation, following the Equation 1 according to Scheme 2 described above, kd=k1*[H^+]+k2*[H^+]^2+k3*[H^+]^3 where kd is the first order rate constant.

[2] = Catalyzed bleaching of Safranine O by H2O2 and intramolecular inactivation; settings: pH 11.0, 25° C.
Excerpt: Safranine O oxidation kinetics was monitored at 525 nm and pH 11 in 0.01 M Phosphate Buffer. The strengths of stock solutions of Safranine O, [Fe^III(biuret-amide)](X═H, NO2) IA, IB complexes and hydrogen peroxide were respectively 2×10^−3 M, 5×10^−5 M and 0.2 M respectively. The extinction coefficient of 3.3×10^4 […] at 525 nm was used to get initial rate in terms of concentration unit (Ms^−1). To get the intramolecular inactivation rate (ki) absorbance change with time was monitored up to complete inactivation of the catalyst. Calculations of rate constants were performed by using Equation (4) and (5).
c. […] For safranine O bleaching, Equation (2) can be simplified to Equation (3) and k2 value can be calculated from the initial rate vs, [Safranine O] data as given in Table 4.
d. Intramolecular Inactivation (ki) Measurement for Safranine O Bleaching at pH 11.0 • The mono exponential intramolecular inactivation rate constant (ki) measurement of the oxidized form of the catalyst was done by the method followed by Collins group. The simplified differential rate law for dye bleaching is given by Equation (3) where Dt and x are total concentrations of the dye and concentration of the bleached dye at time t respectively. Integrating the Equation (3) under the boundary condition x=x∞ at t=t∞ results Equation (4). Equation (5) was derived by replacing the concentration terms by the absorbance term.
From the slope of the double logarithm of the ratio At/A∞ vs. time plot in Equation 6 gives the value of ki (FIG. 13, Table 4). The rate constant k2 is calculated from the intercept of the plot by putting the value of ki.

[3] = Catalyzed bleaching of Orange II by H2O2; settings: for k−1: from kinetic fitting; for k1 / k2: 0.01M Phosphate Buffer
Excerpt: In another embodiment, to study the efficacy of complex (IA) as H2O2 activating catalyst, its activity towards bleaching of the dye Orange II ([4-[(2-hydroxynaphthyl)azo]-benzene sulphonic acid], Na+ salt) is studied. […] The exponential kinetic curve, that holds for at least 6 half-lives (FIG. 8), indicates the fact that (IA) is oxidatively robust. Therefore, little or no degradation of the catalysts takes places during the course of the oxidation. This is because C—H bond of the —NMe group is situated very far away from the proposed Fe-oxo intermediate, thereby reducing the chances of ligand degradation by intramolecular C—H abstraction as has been proposed before for other Fe-TAML, complexes.
Using same Perkin-Elmer spectrophotometer Orange II bleaching kinetics were carried out in 0.01 M phosphate buffer at 485 nm, one of the absorption peaks of Orange II. pH was varied from 7 to 11. Strength of stock solutions of IB and Orange II were (2×10^−5 M) and (2−20×10^−4 M) respectively. Stock solution of hydrogen peroxide of 2×10^−2 M was made by measuring the optical density at 230 nm (ε=72.8 M^−1 cm^−1). Appropriate amount of stock solutions of Orange II, Fe^III-catalyst (IB) and H2O2 were added consecutively in the 1.00 cm quartz cell during experiments. Extinction coefficients for Orange II of 17,800, 23,000 and 19,400 M^−1 cm^−1 at pH 7, 9 and 11 respectively was used to calculate the initial rates of Orange II oxidation, Plot of concentration versus time was taken up to 10-20% of conversion of the dye compared to the total reaction.
b. Kinetics of IA and IB Catalyzed Bleaching of Orange II by H2O2 • Orange II dye has absorption maxima at 485 nm. Natural oxidant H2O2 slowly oxidizes Orange II but in presence of IA and IB huge catalysis was observed. The kinetic data followed the mechanism shown in Scheme 2. The initial rate of the dye bleaching reaction obeyed Michaelis-Menten type Equation (2) which was derived considering the steady state of oxidized [Fe^III(L2X)] species using mass balance equation [Fe^III]T=[Fe^III(L2X)]]+[Oxidized-[Fe^III L2X)]]. From kinetic fitting it was observed k.1˜0 for both IA and IB. […] In Table 3 all the kinetic parameters related to Orange II bleaching are given in details at 25° C. in 0.01 M Phosphate Buffer.

[4] = Acid (HClO4) catalyzed demetalation kinetics; type: physicochemical; settings: for k1* (acid catalyzed demetalation): HClO4, 25.0 °C, 350 nm; for half-life at 0.173 mM: aqueous HClO4 solution, pH 1, read-out: t1/2 [pH 1] (converted)
Protocol: Acid induced demetalation kinetics was monitored in kinetic mode of the spectrophotometer (Perkin-Elmer—λ35) using 1.00 cm quartz cell in thermostatted cell housing. In the all kinetic runs IB was kept constant at 0.173 mM while acid concentration was varied from 0.04 to 3.0 M using HClO4. The pseudo first order rate constants (kd) were calculated from the initial rates at 350 nm (one of the absorption peaks of complex IB) and temperature was kept constant at 25.0±0.5° C. For each set, solution pH was measured with a pH meter (LABINDIA, PICO^+) with calibrated electrode.
as §1

[5] = Cyclic voltammetry in acetonitrile; type: physicochemical
Excerpt: The σ-donor ability of (Et4N)2.[Fe^III(biuret-amide)] is studied using cyclic voltammetry. […] The peak observed for (IA) (E1/2 at −0.064 V) can most likely be assigned to a one electron oxidation for a Fe(III)/Fe(IV) couple while the other peak might be due to a ligand centered oxidation process (FIG. 6). On comparison with Fe-TAML complex (II) where a —CMe2 group is present instead of a —NMe group in the six membered ring of the complex, the Fe(III)/Fe(IV) couple for (IA) is found to be approximately 230 mV lower.
Infrared spectra were obtained on a Perkin-Elmer FT-IR spectrum GX instrument. LC-MS from Acquity Waters was used for ESI-MS analysis. EPR spectrum was recorded on a Bruker EMX X-band spectrometer operating at a field modulation of 100 kHz, modulation amplitude of 2. G and microwave radiation power of 2 mW. The solid Fe(III) complex was taken in a quartz tube and the spectrum was recorded at 298K. Cyclic voltammetry (CV) was done on an Autolab PGSTAT30 (Eco-Chemie) instrument in a conventional three-electrode test cell with platinum as the working electrode (WE), platinum wire as quasi reference electrode (RE) and a platinum foil as a counter electrode (CE). The measurements were carried out using a solution of 1 mM of (I) in dry acetonitrile with 0.1 M [n-Bu4N]PF6 as the supporting electrolyte. All reversible couples were confirmed by a linear dependence of peak current vs. the square root of the scan rate over the range of 20-200 mVs^−1.

| SMILES | demetalation in high concentration phosphate buffer [1] | ki × 10^4 (intramolecular inactivation) [2] [s^−1] | k2 × 10^−3, from Equation (5) [2] [M^−1s^−1] | k2 × 10^−3, from initial rates [2] [M^−1s^−1] | k−1 [3] | k1 ([3]; pH 7.0, 25° C.) | k2 ([3]; pH 7.0, 25° C.) | k1 ([3]; pH 9.4, 25° C.) | k2 ([3]; pH 9.4, 25° C.) | k1 ([3]; pH 11.0, 25° C.) | k2 ([3]; pH 11.0, 25° C.) | acid induced demetalation compared to compound II [4] | k1* (acid catalyzed demetalation) [4] | half-life at 0.173 mM [4] [h] | further results |
| --- | --- | --- | --- | --- | --- | --- | --- | --- | --- | --- | --- | --- | --- | --- | --- |
| CN1C(=O)[N]2C(C)(C)C(=O)[N]3c4ccc([N+](=O)[O-])cc4[N]4C(=O)C(C)(C)[N](C1=O)[Fe]342[Cl] [Catalyst 1B, Tetraethyl ammonium 3,3,6,9,9-pentamethyl-13-nitro-1,4,8,11-tetrahydro-1H benzo[i][1,4,6,8,11]pentaazacyclotridecine-2,5,7,10(6H,11H)-tetraone ferrate] | insignificant absorption change | 3.0 ± 0.2 | 3.8 ± 0.3 | 3.9 ± 0.1 | ~0 | (1.24 ± 0.10) × 10^3 M^−1s^−1 | (4.1 ± 0.5) × 10^5 M^−1s^−1 | (2.36 ± 0.6) × 10^3 M^−1s^−1 | (4.2 ± 0.4) × 10^5 M^−1s^−1 | (2.4 ± 0.2) × 10^4 M^−1s^−1 | (4.9 ± 0.5) × 10^5 M^−1s^−1 | significantly less | (1.41 ± 0.09) × 10^−3 M^−1s^−1 | 1.33 | – |
| CN1C(=O)[N]2C(C)(C)C(=O)[N]3c4ccccc4[N]4C(=O)C(C)(C)[N](C1=O)[Fe]342[Cl] [Catalyst 1A, Tetraethyl ammonium 3,3,6,9,9-pentamethyl-1,4,8,11-tetrahydro-1H-benzo[i][1,4,6,8,11]pentaazacyclotridecine-2,5,7,10(6H,11H)-tetraone ferrate] | insignificant absorption change | 3.7 ± 0.1 | 2.0 ± 0.1 | 2.4 ± 0.1 | ~0 | (2.0 ± 0.1) × 10^2 M^−1s^−1 | (2.0 ± 0.1) × 10^4 M^−1s^−1 | (2.8 ± 0.2) × 10^3 M^−1s^−1 | (1.12 ± 0.10) × 10^5 M^−1s^−1 | (3.4 ± 0.2) × 10^4 M^−1s^−1 | (1.60 ± 0.10) × 10^5 M^−1s^−1 | significantly less | (3.7 ± 0.5) × 10^−3 M^−1s^−1 | 0.4 | stability at low pH ([1]; in presence of HClO4): very good stability up to pH 2; half-life ([1]; pH 5, 0.1M phosphate buffer, 25° C.): ~18 h; complex degraded ([1]; pH 5, 0.1M phosphate buffer, 5 hours, 25° C.): 10%; stability at different ionic strengths ([1]; pH 7, phosphate concentration): remarkably stable up to 0.5 M phosphate concentrations; Fe(III)/Fe(IV) couple lower than Fe-TAML complex (II) [5]: approximately 230 mV; formal reduction potential E1/2, reversible process (Fe(III)/Fe(IV) couple) ([5]; acetonitrile, 0.1 M [n-Bu4N]PF6, vs Fc+/Fc): −0.064 V; E1/2, quasi-reversible process ([5]; acetonitrile, 0.1 M [n-Bu4N]PF6, vs Fe+/Fc): −0.559 V; catalytic activity compared with Fe-TAML ([3]; pH 7 and 9): much faster in oxidizing Orange II; bleaching of the dye Orange II by activation of H2O2 ([3]; pH 11): complete bleaching; pseudo first order rate constant kobs ([3]; pH 11): 0.021 ± 0.001 s⁻¹ |
